Data: PubChem BioAssay (NCI)
Several values for one entry are separate records, joined by “and”; a condition that tells them apart may be missing. Equal values may be shown once.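 A five-concentration, 48-hour dose response in 96-well plates underlies each endpoint, interpolated linearly between surrounding concentrations. GI50 marks 50% less growth. At the TGI there is no net growth.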

Experiments:
Assay in all cases: NCI-60 cell line screen, 48 h
786-0 renal = test system: 786-0 renal
A549 NSCLC = test system: A549 NSCLC
BT-549 breast = test system: BT-549 breast
CCRF-CEM leukemia = test system: CCRF-CEM leukemia
HL-60(TB) leukemia = test system: HL-60(TB) leukemia
MDA-MB-435 = test system: MDA-MB-435
OVCAR-4 ovarian = test system: OVCAR-4 ovarian
SK-MEL-5 melanoma = test system: SK-MEL-5 melanoma
SNB-19 CNS = test system: SNB-19 CNS
UO-31 renal = test system: UO-31 renal

SMILES	GI50 (786-0 renal) [µM]	TGI (786-0 renal)	GI50 (A549 NSCLC)	TGI (A549 NSCLC)	GI50 (BT-549 breast) [µM]	TGI (BT-549 breast) [µM]	GI50 (CCRF-CEM leukemia)	TGI (CCRF-CEM leukemia)	GI50 (HL-60(TB) leukemia)	TGI (HL-60(TB) leukemia)	GI50 (MDA-MB-435)	TGI (MDA-MB-435) [µM]	GI50 (OVCAR-4 ovarian)	TGI (OVCAR-4 ovarian)	GI50 (SK-MEL-5 melanoma) [µM]	TGI (SK-MEL-5 melanoma)	GI50 (SNB-19 CNS)	TGI (SNB-19 CNS)	GI50 (UO-31 renal)	TGI (UO-31 renal)
O=Cc1ccc(-c2ccc(-c3nc4ccccc4s3)cc2)s1	51.7	> 100 µM	> 100 µM	> 100 µM	63.8	> 100	26.5 µM	90.7 µM	34.8 µM	> 100 µM	56.2 µM	> 100	> 100 µM	> 100 µM	27.1	> 100 µM	> 100 µM	> 100 µM	42.7 µM	> 100 µM
CCN1C(=NCCO)NS(=O)(=O)c2ccccc21	–	> 100 µM	–	> 100 µM	–	> 100	–	> 100 µM	–	> 100 µM	–	> 100	–	> 100 µM	–	> 100 µM	–	> 100 µM	–	> 100 µM
COc1ccc2c(c1)-c1nn(CCCN(C)C)c3ccc([N+](=O)[O-])c(c13)N2	–	7.68 µM and 12.2 µM	0.164 µM and 0.368 µM	2.51 µM and 2.28 µM	–	7.19	0.0825 µM and 0.624 µM	6.45 µM and 8.72 µM	0.468 µM and 2.9 µM	1.82 µM and 9.36 µM	0.165 µM and 0.593 µM	2.9	0.234 µM and 0.649 µM	1.18 µM and 2 µM	–	2 µM and 2.92 µM	0.192 µM and 0.59 µM	6.33 µM and 11.3 µM	0.165 µM and 0.435 µM	1.9 µM and 6.16 µM
C[C@@H](CO)NC(=O)c1cc(-c2ccc(Cl)cc2)nn(-c2cnn(C)c2)c1=O	23.9	> 100 µM	20.3 µM	67.7 µM	23.7	86.9	22.1 µM	> 100 µM	13.9 µM	42.3 µM	50.3 µM	> 100	45.9 µM	> 100 µM	12.7	26 µM	26.4 µM	> 100 µM	7.79 µM	57.4 µM
Cc1nc2cc(Nc3nc(Nc4ccc(F)cc4)nc(N4CCOCC4)n3)ccc2n1Cc1ccccc1	1.69	3.33 µM	3.2 µM	14.2 µM	8.19	25.7	2.75 µM	8.2 µM	2.07 µM	4.73 µM	3.95 µM	15.9	4.47 µM	41.8 µM	2.9	11.1 µM	5.72 µM	> 100 µM	3.24 µM	14.6 µM
COc1cnc2c(c1)C(=O)c1c-2n(CCCN2CCC(O)CC2)c(=O)c2cc(Cl)ccc12	0.28	1.36 µM	0.48 µM	2.34 µM	9.9	25.9	0.066 µM	> 100 µM	0.929 µM	4.32 µM	12.9 µM	25.7	1.34 µM	3.08 µM	1.92	20.4 µM	0.243 µM	3.46 µM	0.271 µM	1.59 µM
CN(CCC(=O)/C(=C\c1ccccc1)c1ccc(Cl)cc1)Cc1ccccc1	2.03	4.1 µM	12.8 µM	31.9 µM	2.94	8.76	1.44 µM	6.91 µM	5.95 µM	34.5 µM	1.83 µM	4.07	3.15 µM	12.7 µM	3.44	13.1 µM	3.92 µM	19.1 µM	1.74 µM	3.63 µM
Cn1cc(C2=C(Nc3ccccc3)C(=O)NC2=O)c2ccccc21	> 25	> 25 µM	> 25 µM	> 25 µM	> 25	> 25	> 25 µM	> 25 µM	> 25 µM	> 25 µM	> 25 µM	> 25	> 21.8 µM	> 25 µM	> 25	> 25 µM	> 25 µM	> 25 µM	> 19.5 µM	> 25 µM
CCSC[C@@H]1C[C@](O)(c2ccc(F)cc2)[C@@H](c2ccc(F)cc2)O1	16.4	31.1 µM	18.7 µM	44 µM	16.8	30.9	12.5 µM	30.2 µM	7 µM	21.2 µM	17.7 µM	37.8	16.3 µM	32.5 µM	14.8	28 µM	16.6 µM	31.1 µM	17 µM	32.9 µM
CN(C)c1ccc(/C=N/S(=O)(=O)c2ccc(-n3c(-c4ccccc4)nc4c(Br)cc(Br)cc4c3=O)cc2)cc1	55.7	> 100 µM	34 µM	> 100 µM	30.6	> 68.8	3.22 µM	> 100 µM	34.4 µM	84.2 µM	42 µM	> 90.7	30.3 µM	97.3 µM	15.3	38.3 µM	51.2 µM	> 100 µM	32.6 µM	> 100 µM
CC1(C)O[C@@H]2C[C@H]3[C@@H]4C[C@H](F)C5=CC(=O)C=C[C@]5(C)[C@@]4(F)[C@@H](O)C[C@]3(C)[C@]2(C(=O)CO)O1	–	> 100 µM	–	> 100 µM	–	> 100	–	> 100 µM	–	> 100 µM	–	> 100	–	> 100 µM	–	> 100 µM	–	> 100 µM	–	> 100 µM
Cc1cccc2c3c(sc12)C(c1ccc(F)cc1)C(C#N)=C(N)O3 (configuration not stated)	0.297	14.2 µM	0.135 µM	14.1 µM	0.297	3.18	0.0439 µM	> 59.7 µM	0.0389 µM	0.731 µM	0.0222 µM	0.0514	0.528 µM	17.1 µM	0.111	1.38 µM	0.081 µM	12.2 µM	0.286 µM	15.5 µM
